Results published in publication PMC7377239, “Cardiovascular Effects of Polychlorinated Biphenyls and Their Major Metabolites” (Environmental Health Perspectives, 2020).
Where two headings read alike, the source gives them in different places.

Columns and labels:
[1] = system: iCell endothelial cells (human iPSC-derived ECs); test: High-content imaging cytotoxicity in iCell endothelial cells, 24 h; type: cell-based; conditions: Homo sapiens, Endothelial cell, iPSC-EC, 24 hr; for viability at 0.1 µM / activity at 0.1 µM: 0.10 µM; for minimal effective concentration: top concentration 100.00 µM
How it was run: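 Readouts were vehicle-normalised and fitted to a four-parameter logistic model. POD was set at one SD beyond 0.5% DMSO control means, and 100 µM was assigned when no response was seen. Cells were monolayers of iCell endothelial cells imaged after 24 h compound exposure using nuclear, mitochondrial and calcein dyes.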

[2] = system: iCell endothelial cells (human iPSC-derived ECs); test: Tube formation (tubulogenesis) assay in iCell endothelial cells, 18 h; type: cell-based; conditions: Homo sapiens, Endothelial cell, iPSC-EC tube formation, 18 hr; for activity at 0.1 µM: 0.10 µM; for minimal effective concentration: top concentration 100.00 µM
How it was run: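 Tube formation was measured by calcein AM imaging after overnight compound exposure (37°C, 0.5% DMSO vehicle) of human iPSC-derived ECs, 7,500/well, on reduced-growth-factor Geltrex in starvation medium. Vehicle-normalized data fitted to four-parameter logistic; POD set at one vehicle SD; without response, 100 μM taken as NOAEL.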

[3] = 0.00 µM control = 100.00, read-out: endo.cyto.24hr
[4] = 0.00 µM control = 100.00, read-out: endo.mito.24hr
[5] = 0.00 µM control = 100.00, read-out: endo.mitoint.24hr
[6] = 0.00 µM control = 100.00, read-out: endo.nma.24hr
[7] = 0.00 µM control = 100.00, read-out: endo.tc.24hrs
[8] = 0.00 µM control = 100.00, read-out: endo.mtl.18hr
[9] = 0.00 µM control = 100.00, read-out: endo.tlps.18hr
[10] = 0.00 µM control = 100.00, read-out: endo.tta.18hr
[11] = 0.00 µM control = 100.00, read-out: endo.ttl.18hr

Clc1ccc(Cl)c(-c2cc(Cl)ccc2Cl)c1 [PCB52]
viability at 0.01 µM [1, 3]: 100% | activity at 0.01 µM [1, 4]: 99.8% | activity at 0.01 µM [1, 5]: 92.8% | activity at 0.01 µM [1, 6]: 103% | viability at 0.01 µM [1, 7]: 100% | viability at 0.1 µM [1, 3]: 98.4% | activity at 0.1 µM [1, 4]: 97.7% | activity at 0.1 µM [1, 5]: 87.4% | activity at 0.1 µM [1, 6]: 103% | viability at 0.1 µM [1, 7]: 98.4% | viability at 1 µM [1, 3]: 97.6% | activity at 1 µM [1, 4]: 97.5% | activity at 1 µM [1, 5]: 92% | activity at 1 µM [1, 6]: 100% | viability at 1 µM [1, 7]: 97.6% | viability at 10 µM [1, 3]: 99.3% | activity at 10 µM [1, 4]: 99.4% | activity at 10 µM [1, 5]: 86.3% | activity at 10 µM [1, 6]: 101% | viability at 10 µM [1, 7]: 99.3% | viability at 100 µM [1, 3]: 97.2% | activity at 100 µM [1, 4]: 97.4% | activity at 100 µM [1, 5]: 83.6% | activity at 100 µM [1, 6]: 100% | viability at 100 µM [1, 7]: 97.2% | minimal effective concentration ([1]; read-out: endo.cyto.24hr POD): 100 µM | minimal effective concentration ([1]; read-out: endo.mito.24hr POD): 100 µM | minimal effective concentration ([1]; read-out: endo.mitoint.24hr POD): 100 µM | minimal effective concentration ([1]; read-out: endo.nma.24hr POD): 100 µM | minimal effective concentration ([1]; read-out: endo.tc.24hrs POD): 100 µM | activity at 0.01 µM [2, 8]: 109% | activity at 0.01 µM [2, 9]: 89.1% | activity at 0.01 µM [2, 10]: 152% | activity at 0.01 µM [2, 11]: 156% | activity at 0.1 µM [2, 8]: 111% | activity at 0.1 µM [2, 9]: 140% | activity at 0.1 µM [2, 10]: 108% | activity at 0.1 µM [2, 11]: 116% | activity at 1 µM [2, 8]: 107% | activity at 1 µM [2, 9]: 132% | activity at 1 µM [2, 10]: 125% | activity at 1 µM [2, 11]: 133% | activity at 10 µM [2, 8]: 110% | activity at 10 µM [2, 9]: 108% | activity at 10 µM [2, 10]: 119% | activity at 10 µM [2, 11]: 120% | activity at 100 µM [2, 8]: 79% | activity at 100 µM [2, 9]: 83.4% | activity at 100 µM [2, 10]: 89.5% | activity at 100 µM [2, 11]: 95.5% | minimal effective concentration ([2]; read-out: endo.mtl.18hr POD): 79.8 µM | minimal effective concentration ([2]; read-out: endo.tlps.18hr POD): 100 µM | minimal effective concentration ([2]; read-out: endo.tta.18hr POD): 100 µM | minimal effective concentration ([2]; read-out: endo.ttl.18hr POD): 100 µM
